This is an account of results in patent US11913884B2, “Visible light-activated dyes and methods of use thereof” (William Marsh Rice University, priority 2019, dated 2024).

The subject of data set [1] is differentiated 3T3-L1 adipocytes. Description: Photoactivation and photobleaching in living adipocytes (CLSM). It is filed as cell-based. The text has this: Super-resolution imaging based on sequential imaging of a specific region of labeled tissue or cell culture relies on the ability to modulate the fluorescence of fluorophores between dark and bright states (Bates et al., 2007, Sengupta et al., 2014). […] Furthermore, the photoactivation of SNile Red can be achieved using visible light, affording lower phototoxicity and better tissue penetration than use of UV light. […] A 488 nm laser was utilized to activate SNile Red, while a 561 nm laser was used for photobleaching. […] Following irradiation with the 488-nm laser for 80 s, a five-fold increase of fluorescence intensity was detected. Subsequently, photobleaching was performed in the same cells using the 561-nm laser. As shown in FIGS. 13B & 13D, the fluorescence intensity decayed to 10% of its maximum within 360 s continuous scanning. This photoswitching flexibility holds promise for SNile Red utilization in further photoactivatable localization microscopy (PALM) studies. Next, the utility of SNile Red for performing super-resolution imaging of lipid droplets was explored. […] Compared to the conventional widefield fluorescence image (FIG. 13B) and Differential interference contrast (DIC) image (FIGS. 13A-B), the PALM reconstruction outlines a pair of lipid droplets with a resolution beyond the optical diffraction limit (FIGS. 13B &13C). […]

Data set [2] has as its system adipocytes differentiated from 3T3-L1 cells. In words: Co-localization assay by confocal laser scanning microscopy. As to conditions: 2 μM, 10 mins, after 488-nm laser for 30 s. It is filed as cell-based. Here is the method:
Before testing the utility of thio-caged fluorophores for investigating biological systems, the cytotoxicity of SNile Red in adipocytes was evaluated using Cell Counting Kit-8. At a concentration of 4 μM SNile Red, 90% of 3T3-L1 cells remained viable even after 24 hours (FIG. 10). Thio-caged dyes were then used to obtain subcellular structural data via fluorescence imaging of adipocytes. Nile Red and BODIPY are the fluorescent dyes most commonly used for lipid imaging (Corsaro and Pistara, 1998, Spiller et al., 1998, Tang et al., 2013). Confocal laser scanning microscopy (CLSM) was used to determine the specificity of SNile Red localization in adipocytes differentiated from 3T3-L1 cells. For colocalization studies, adipocytes were stained with 2 μM SNile Red and 100 nM BODIPY 493/503 for 10 mins.
3T3-L1 cells were differentiated to adipocytes according to the protocol from ATCC (Chemically-induced differentiation of at CC® CL-173TM (3T3-L1) using single-Component Commercially-available reagents). […]
After incubation of 2 μM SNile Red for 10 min, cells were washed with PBS (pH 7.4) twice and turned to confocal laser scanning microscope (CLSM). […] Differential interference contrast (DIC) and fluorescent images were processed and analyzed using ImageJ. The Pearson's Coefficient was calculated by ImageJ.

A short description of data set [3]: UV-vis absorption and fluorescence spectra of thio-caged and uncaged fluorophores. It is filed as physicochemical. To be noted: DMSO (50 μM). Here is the method: Encouraged by the excellent photoactivation properties of SNile Red, Lawesson's reagent was employed to introduce thiocarbonyl moieties into several different fluorophores, such as phthalimide (PI), coumarin (Cou) and acridone (ACD), obtaining yields ranging from 20-80% (FIG. 1). Next, characterization of the spectroscopic and photochemical properties of these thiocaged fluorophores and their oxidized products using UV-vis and fluorescence spectroscopies was performed (Table 1). […] Double thiocarbonyl substitution on 4-dimethylaminophthalimide (4-DMAP, FIG. 1) produced an even larger bathochromic shift of 166 nm. […] It was hypothesized that the red-shift and enhanced absorption seen with thiocarbonyl compounds were due to the reduced energy gap between the HOMO-LUMO in these fluorophores. This is consistent with the computational results discussed below. […] To assess the efficiency of photoactivation for the various thio-caged fluorophores, UV-vis and fluorescence spectra were recorded after different irradiation times (FIGS. 4-8).
The ^1H NMR spectroscopic measurements were carried out using a Bruker-600 NMR at 600 MHz with tetramethysilane (TMS) as internal reference. Electrospray ionization (ESI) mass spectra were performed on a Bruker MicroToF ESI LC-MS System in positive-ion mode. The steady-state absorption spectra were obtained with a ThermoFisher Evolution 220 UV-Vis spectrophotometer in 1 cm path length quartz cells. Fluorescence spectra were recorded using spectrophotometer (SPEX FluoroLog-3). Quantum yield in DMSO was measured relative to the fluorescence of Rhodamine B (Φ=0.65) in ethanol or quinine sulfate (Φ=0.55) in 0.5 M·L^−1 H2SO4. FT-IR spectrum was taken on a PerkinElmer Spectrum 100 FT-IR Spectrometers. Confocal fluorescent images of living cells were performed using Nikon A1R-si Laser Scanning Confocal Microscope (Japan), equipped with lasers of 405/488/561/638 nm. STORM images were performed on a NSTORM (Nikon, Japan), featuring a CFI Apo TIRF 100× oil objective (NA 1.49) on an inverted Nikon Ti Eclipse microscope with a quad cube filter (Chroma, zt405/488/561/640 m-TRF), piezo stage, and Perfect Focus System (Nikon) for Z-stability. Light source are hand-held UV lamp, BlueView Transilluminator (470 nm centred, Vernier), Prior Lumen200 with 615/30 filter and 850 LED (Mouser Electronics).

With `CCN(CC)c1ccc2nc3c4ccccc4c(=S)cc-3oc2c1` [SNile Red], the “fluorescence intensity after photobleaching, of its maximum” value in data set [1] (561-nm laser, within 360 s continuous scanning) came to 10%. Also, in data set [1] (irradiation with 488-nm laser for 80 s), the “increase of fluorescence intensity in cells” value is listed as “five-fold”. In data set [2], the “colocalization with BODIPY 493/503 labeling” value is recorded as “more than 90%”. In data set [3], the λem is on record as 616 nm.
